Reference: US9439942B2, “Peptides and use thereof in the treatment of large cell lung cancer” (Biokine Therapeutics Ltd., priority 2012, dated 2016)
“Also recorded” adds a separate entry of the source. Where two headings read alike, the source gives them in different places. Non-standard residues stand in square brackets, D forms with d. *: point of attachment. Benzoyl(4-F) = O=C(c1ccc(F)cc1)*; Cit = NC(=O)NCCC[C@H](N)C(=O)O

Tests used:
human CXCR4 = biological target: T1, human CXCR4 (Homo sapiens, UniProt P61073); experiment: Immunohistochemistry for CXCR4 in H460 derived tumors after S.C. BKT140; type: in vivo; details: BKT140 S.C. at a site distant from the tumor, 6 hours prior to sacrification
T1 construct: Tissue sections from H460 derived tumors were tested for CXCR4 expression; endogenous in cells; host or cells: H460 NSCLC cells grown as subcutaneous xenografts in Nude mice
T1 sequence (P61073 whole entry): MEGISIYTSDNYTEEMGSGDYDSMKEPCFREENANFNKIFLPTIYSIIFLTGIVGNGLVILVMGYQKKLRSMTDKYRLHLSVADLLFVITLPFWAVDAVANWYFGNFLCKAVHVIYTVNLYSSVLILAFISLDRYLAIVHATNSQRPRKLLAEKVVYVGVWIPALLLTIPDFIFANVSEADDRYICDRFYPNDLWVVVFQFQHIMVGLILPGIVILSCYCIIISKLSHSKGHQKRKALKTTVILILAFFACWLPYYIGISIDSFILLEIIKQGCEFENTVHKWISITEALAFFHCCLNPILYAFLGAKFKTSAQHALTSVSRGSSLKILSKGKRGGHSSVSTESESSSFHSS
Method: (§1) 1*10^6 H460 cells mixed in 100 μl RPMI 1640 and 100 μl matrigel (BD Bioscience) were injected subcutaneously (S.C.) into the right flank of Nude mice. Tumor growth was followed for 19 days. 1*10^6 A549 cells mixed in 100 μl RPMI 1640 and 100 μl matrigel (BD Bioscience) were injected S.C. into the right flank of Nude mice. Tumor growth was followed for 35 days. Systemic BKT140 administration was performed as follows: BKT140 (400 μg/mice dissolved in PBS) was administered once daily 6/7 days a week, by S.C. injection into the left flank at a point distant at least 1.5 cm from the right sided tumor. Tumors size was calculated by measurement of tumor length and width using the following formula: 4/3*π*(length/2)*(width/2)^2.
Tissue sections of tumor-bearing Nude mice were routinely fixed with formalin and embedded in paraffin. Antigen retrieval was performed, and sections were stained with either mAb 44708 (R&D Systems, Minneapolis, MN) or 12G5 (R&D Systems) for human CXCR4 (1:100) using a standard indirect avidin-biotin HRP method according to the manufacturer's instructions. 3-Amino-9-ethylcarbazole was used for color development and sections were counterstained with hematoxylin. As negative controls, sections were stained either with no primary Ab (PBS) or with an isotype-matched control Ab.

[1] = tested on: H1299 cells (large cell carcinoma); experiment: Colony assay (agar), H1299; type: cell-based, human; details: 100 μg\ml BKT140 with CXCL12
Method: (§2) The H460 (large cell carcinoma), A549 (Adenocarcinoma), H358 (Bronchoalveolar carcinoma), H1299 (large cell carcinoma)—cell lines were all purchased from ATCC and were maintained in RPMI (Gibco Laboratories, Grand Island, N.Y.) containing 10% fetal calf serum (FCS), 1 mM L-glutamine, 100 U/ml penicillin, and 0.01 mg/ml streptomycin (Biological Industries, Kibbutz Beth Haemek, Israel). L-4 (a primary NSCLC cell line) was generated from large cell carcinoma as previously described (Wald et al, J Thorac Cardiovasc Surg. 2011 June; 141(6): 1503-12).
(§3) Agar base layer was prepared as follows: 45 ml of RPMI+12% FCS was mixed with 15 ml of RPMI X2+12% FCS and with 15 ml of 2.5% agar in double distilled water. Tumor cells were suspended in RPMI+10% FCS. Cell suspension was mixed in a ratio of 1:3 with the agar base solution. This mixture was then plated on top of a preformed solid agar base. […] Fourteen days later, the number of colonies was counted in ten different fields.
(§4) Data was expressed as mean ±standard error (SE) and as absolute values. Continuous data with normal distribution were analyzed using T-test. Categorical data were analyzed using Mann-Whitney U test. A p value of 0.05 was considered significant. * P<0.05, ** P<0.01. Statistical analyses were performed using (SPSS software, (IBM).

[2] = tested on: H460 cells (large cell carcinoma); experiment: Proliferation / survival assay and Giemsa stain, H460; type: cell-based, human; details: for H460 tumor cell proliferation, agent alone: 0.1 μg/ml, did not completely inhibit proliferation
Method: (§5) Color extraction was done using 0.1 N HCl. […] 6 wells were determined for each time point.

[3] = tested on: NSCLC cell lines (H358, A549, H460, H1299 and L4); experiment: Colony assay (agar), NSCLC cell lines; type: cell-based, human
Method: as §2, §3, §4

[4] = tested on: bone marrow derived cells; details: cited from earlier work
[5] = tested on: A549 cells (Adenocarcinoma); experiment: Colony assay (agar), A549; type: cell-based, human
Method: as §2, §3, §4

A549 derived tumors = experiment: A549 derived xenograft growth in Nude mice; type: in vivo; details: BKT140 400 μg/mice S.C. once daily 6/7 days a week
Method: as §1

[6] = tested on: A549 cells (Adenocarcinoma); details: for A549 tumor cell proliferation, agent alone: 0.1 μg/ml, did not completely inhibit proliferation
Method: To measure cell proliferation, 4000 cells were seeded into 96-well cell culture plates with 200 μl RPMI 1640 medium supplemented with 10% FCS under the following conditions: 37° C., and 5% CO2. Twenty-four hours later, the medium was to changed to RPMI 1640 supplemented with 1% FCS. 20 μg\ml, 50 μg/ml or 100 μg\ml BKT140, with or without Cisplatin 0.1 μg/ml or paclitaxel 0.1 μg/ml to 1 μg/ml μg/ml were added to the medium. For radiation experiments, prior to plating of cells, the cells were irradiated at the following doses 500 to 2000 Rad. Cultured cells were fixed with 2.5% Gluteraldehyde at the indicated time points and stained with 1% Methylene Blue. Color extraction was done using 0.1 N HCl. Absorbance of the solution in each well at 570 nm was read with micro-plate reader (Anthos Htll). 6 wells were determined for each time point.

[7] = tested on: NSCLC cell lines (H358, A549, H460, H1299 and L4); experiment: Proliferation and survival assays, NSCLC cell lines; type: cell-based, human; details: 20 or 100 μg/ml BKT140, dose dependant
Method: as §5

[8] = tested on: H460 cells (large cell carcinoma); experiment: Colony assay (agar), H460; type: cell-based, human
Method: as §2, §3, §4

[9] = tested on: H358 cells (Bronchoalveolar carcinoma); experiment: Colony assay (agar), H358; type: cell-based, human; details: 100 μg\ml BKT140 with CXCL12
Method: as §2, §3, §4

H460 derived tumors = experiment: H460 derived xenograft growth in Nude mice; type: in vivo; details: BKT140 400 μg/mice S.C. once daily 6/7 days a week
Method: as §1

[10] = increasing BKT140 with irradiation 500 Rad, cisplatin 0.1 μg/ml or paclitaxel 0.1 μg/ml (paclitaxel data not shown)

For “4F-benzoyl-Arg-Arg-Nal-Cys-Tyr-Cit-Lys-DLys-Pro-Tyr-Arg-Cit-Cys-Arg-NH2 ({Benzoyl(4-F)}-RR[Nal]CY[Cit]K[dK]PYR[Cit]CR-NH2; cysteine pairing not given here) [BKT140]”, the “CXCR4 staining of tumor tissue (binding to tumor expressed CXCR4)” value (human CXCR4) was “completely blocked CXCR4 staining”, the “inhibitory effect on colony formation (compared between cell lines)” value [1] was “most evident” and the “H460 tumor cell proliferation” value ([2]; BKT140 20 μg/ml) was “completely arrest”. The H460 cytotoxic effect ([2]; BKT140 100 μg/ml) was “tumor cell death”, the “H460 proliferation, combination effect” value [2, 10] was “additive anti proliferative effects” and the colony formation ([3]; single dose of 100 μg\ml BKT140 on day one, over entire range of CXCL12 concentrations) was “reduced colony formation”. The “time of return of mobilization to base line” value ([4]; post BKT140 injection) was 24 h, the “time of peak mobilization of bone marrow derived cells” value ([4]; post S.C. injection) was “four to eight” and the “inhibitory effect on colony formation (compared between cell lines)” value ([5]; 100 μg\ml BKT140 with CXCL12) was “least evident”. The “volume / development of A549 derived tumors” value (A549 derived tumors; 35 days) was “much reduced effect”, the “decrease of median tumor volume” value (A549 derived tumors; A549) was roughly 50% and the “A549 tumor cell proliferation” value ([6]; BKT140 20 μg/ml) was “did not affect”. For the same molecule, the “A549 tumor cell proliferation” value ([6]; BKT140 100 μg/ml) was “significantly reduced”, the “A549 proliferation, combination effect” value [6, 10] was “additive anti proliferative effects” and the “NSCLC proliferation (cytostatic / cytotoxic effect)” value [7] was “inhibited; also recorded: both cytostatic and cytotoxic effects”. The tumor cell survival [7] was “reduced tumor cell survival”, the “inhibitory effect on colony formation (compared between cell lines)” value ([8]; 100 μg\ml BKT140 with CXCL12) was “most evident” and the “inhibitory effect on colony formation (compared between cell lines)” value [9] was “least evident”. For the same molecule, the “volume / development of H460 derived tumors” value (H460 derived tumors; 19 days) was “significantly reduced; also recorded: significantly delayed” and the “decrease of median tumor volume” value (H460 derived tumors; H460) was roughly 50%.
In the case of `N.N.[Cl][Pt][Cl]` [cisplatin, reference compound], the “H460 tumor cell proliferation, agent alone” value [2] was “moderate anti-proliferative effect” and the “A549 tumor cell proliferation, agent alone” value [6] was “moderate anti-proliferative effect”.
With `CC(=O)O[C@H]1C(=O)[C@@]2(C)[C@H]([C@H](OC(=O)c3ccccc3)[C@]3(O)C[C@H](OC(=O)[C@H](O)[C@@H](NC(=O)c4ccccc4)c4ccccc4)C(C)=C1C3(C)C)[C@]1(OC(C)=O)CO[C@@H]1C[C@@H]2O` [paclitaxel, reference compound] the “H460 tumor cell proliferation, agent alone” value [2] was “moderate anti-proliferative effect” and the “A549 tumor cell proliferation, agent alone” value [6] was “moderate anti-proliferative effect”.
For “CXCL12: The chemokine CXCL12 (stromal-derived factor-1 or SDF-1), the only natural ligand of CXCR4”, the colony formation ([3]; CXCL12 25-250 ng/ml, colonies counted after fourteen days) was “dose dependant increase in colony formation”, the “fold increase in colony number” value ([5]; similar CXCL12 concentrations (250 ng/ml)) was 1.4 fold and the “fold increase in colony number” value ([8]; 250 ng/ml CXCL12) was 2.5 fold.
